In series [1] the test system is Nucleic Acid. Kind of series: Inhibition of miR-4644 in human HeLa cells assessed as increase in luminescence at 4 uM after 24 hrs by luciferase reporter gene assay relative to control. Format: cell-based.
The test system of series [2] is Nucleic Acid. As to the kind of experiment: Inhibition of miR-4644 in human MCF7 cells assessed as increase in luminescence at 4 uM after 24 hrs by luciferase reporter gene assay relative to control. It counts as cell-based. In general terms: Reporter assays use an easily measured gene product as a stand-in for the process of interest.
The test system of series [3] is Nucleic Acid. As to the kind of experiment: Inhibition of Pri-miR-4644 expression in human HeLa cells at 4 uM after 10 mins by qRT-PCR analysis. It counts as cell-based.
Series [4] has as its system Drosophila. Kind of series: Down regulation of mature-miR-14 in Drosophila larvae at 50 uM, po by qRT-PCR analysis relative to control. It counts as functional, organism-based. (In general: In qPCR the cycle at which signal appears reflects the starting amount.)
The test system of series [5] is MCF7. Kind of series: Cell cycle arrest in human MCF7 cells assessed as accumulation at S phase at 4 uM after 24 hrs using propidium iodide staining by flow cytometry (reference value: 9%). Format: functional. Background: In flow cytometry, cells or beads pass a laser one at a time.
Series [6] relates to Nucleic Acid. Kind of series: Inhibition of pri-miR-4644 expression in human MCF7 cells at 4 uM after 10 mins by qRT-PCR analysis. It counts as cell-based.
Series [7] concerns MCF7. As to the kind of experiment: Ratio of IC50 for human MCF10A cells to IC50 for human MCF7 cells.
For series [8], the system named is Drosophila. As to the kind of experiment: Inhibition of miR-14 in transgenic Drosophila larvae expressing EGFP assessed as increase in EGFP protein expression in wing disc at 50 uM, po by Western blot analysis relative to control. It counts as functional, organism-based.
Series [9] concerns Nucleic Acid. As to the kind of experiment: Inhibition of mature-miR-4644 expression in human HeLa cells at 4 uM after 10 mins by qRT-PCR analysis. Format: cell-based.
In series [10] the test system is MCF-10A. As to the kind of experiment: Cytotoxicity against human MCF10A cells. It counts as cell-based.
Series [11] deals with MCF7. Kind of series: Cell cycle arrest in human MCF7 cells assessed as accumulation at G0/G1 phase at 4 uM after 24 hrs using propidium iodide staining by flow cytometry (reference value: 79%). Format: functional.
For series [12], the system named is Nucleic Acid. As to the kind of experiment: Inhibition of mature-miR-4644 expression in human MCF7 cells at 4 uM after 10 mins by qRT-PCR analysis. Format: cell-based.
Series [13] deals with Drosophila. As to the kind of experiment: Inhibition of miR-14 in transgenic Drosophila larvae assessed as increase in fluorescence in wing disc at 50 uM, po by EGFP reporter gene assay using confocal microscopy relative to control. It counts as functional, organism-based.
For series [14], the system named is Drosophila. Kind of series: Down regulation of pri-miR-14 in Drosophila larvae at 50 uM, po by qRT-PCR analysis relative to control. Format: functional, organism-based.
In series [15] the test system is MCF7. As to the kind of experiment: Cell cycle arrest in human MCF7 cells assessed as accumulation at G2/M phase at 4 uM after 24 hrs using propidium iodide staining by flow cytometry (reference value: 11%). It counts as functional.
In series [16] the test system is MCF7. As to the kind of experiment: Ratio of IC50 for HEK cells to IC50 for human MCF7 cells.
Series [17] concerns Drosophila. As to the kind of experiment: Down regulation of miR-3 in Drosophila larvae at 50 uM, po by qRT-PCR analysis relative to control. Format: functional, organism-based.
Series [18] in a line: Cytotoxicity against HEK cells. It counts as cell-based. To be noted: human, hek293.
Series [19] has as its system Drosophila. As to the kind of experiment: Down regulation of miR-14 in Drosophila larvae at 50 uM, po by qRT-PCR analysis relative to control. It counts as functional.
The test system of series [20] is Nucleic Acid. As to the kind of experiment: Inhibition of miR-30A in human HeLa cells assessed as increase in luminescence at 4 uM after 24 hrs by luciferase reporter gene assay relative to control. Format: cell-based.
The subject of series [21] is Nucleic Acid. Kind of series: Inhibition of miR14 in Drosophila melanogaster S2 cells at 4 uM after 24 hrs by luciferase reporter gene assay. It counts as cell-based.
Series [22] concerns Nucleic Acid. Kind of series: Inhibition of miR-4644 in human HeLa cells assessed as reduction in luminescence at 4 uM after 24 hrs by luciferase reporter gene assay relative to control. It counts as cell-based.
Series [23] has as its system Nucleic Acid. As to the kind of experiment: Inhibition of miR-4644 in human MCF7 cells assessed as reduction in luminescence at 4 uM after 24 hrs by luciferase reporter gene assay relative to control. It counts as cell-based.

Active and inactive are the calls of the source. The rule behind the calls is not given here.

One may read the inhibition as how much of the control response was suppressed. For the molecule `O=C1CC(c2ccccc2)Nc2ccccc21` (stereo unspecified), the inhibition entry in [1] and in series [2] was “inactive” throughout.

Regarding `O=C1CC(c2ccc(Br)cc2)Nc2ccccc21` (stereo unspecified), the inhibition in [3], in series [6], in series [9] and in series [12] was 20% each time. Also, the result in series [4] and in [14] was Active. Further, the fold change (FC) in series [1] is 3; in series [2], 3; in [19] it was 5. Moreover, the Activity in [5] is 9%; in [10] it was “Non-toxic”; in series [11], 83%; in [15] it was 7%; in [18], “Non-toxic”. The entries for the “Ratio IC50” value in [7] and in [16] were 3 and 2, respectively. The inhibition entry in series [8], in series [13] and in series [21] was “Active” each time. In addition, the result in series [17] was inactive. Also, the inhibition result in series [20] is “inactive”.

Regarding `Cc1ccc(S(=O)(=O)Oc2ccc(C3CC(=O)c4ccccc4N3)c(OS(=O)(=O)c3ccc(C)cc3)c2)cc1` (stereo unspecified), the inhibition in series [22] amounted to 56%; in series [23] it was 21%.

Take `O=C1CC(c2ccc(-c3ccoc3)cc2)Nc2ccccc21` (stereo unspecified): the inhibition in series [22] was 56%; in series [23], 21%.

`O=C1CC(c2ccc(O)cc2O)Nc2ccccc21` (stereo unspecified): the inhibition in [3], in series [6], in [9] and in series [12] was 20% in each case. In addition, the outcome in [4] and in [14] was Active. Also, the fold change (FC) in [1] turned out to be 3; in [2], 3; in series [19] it was 5. The Activity in series [5] was 8%; in series [10], “Non-toxic”; in [11] it was 85%; in [15] it was 7%; in [18], “Non-toxic”. Moreover, the entries for the “Ratio IC50” value in series [7] and in series [16] were 3 and 2, respectively. In addition, the inhibition entry in [8], in series [13] and in series [21] was “Active” throughout. For the same molecule, in [17], the result was inactive. Also, the inhibition entry in series [20] was “inactive”.

`COc1ccc(C2CC(=O)c3ccccc3N2)cc1` (stereo unspecified): the inhibition entry in series [1] and in series [2] was “inactive” throughout.

In the case of `O=C1CC(c2c[nH]c3ccccc23)Nc2ccccc21` (stereo unspecified), the inhibition turned out to be 56% in [22] and 21% in series [23].

For `Cc1cc(C)c(C2CC(=O)c3ccccc3N2)c(C)c1` (stereo unspecified), the values for the inhibition in [22] and in series [23] were 56% and 21%, respectively.

As for `CC(=O)Oc1ccc(C2CC(=O)c3ccccc3N2)c(OC(C)=O)c1` (stereo unspecified), the results for the inhibition in series [22] and in [23] were 56% and 21%, respectively.

For the origin of these results see ChEMBL document CHEMBL1938245, “aza-Flavanones as potent cross-species microRNA inhibitors that arrest cell cycle” (Bioorg Med Chem Lett, 2012).
